Results taken from ChEMBL document CHEMBL4196128 (ACS Med Chem Lett, 2018).

Tests used:
[1] = Clearance in monkey at 1 mg/kg, iv; conditions: cynomolgus monkey, in vivo
[2] = system: A2058; assay: Antiproliferative activity against human A2058 cells harboring BRAF V600E/D mutant measured after 4 days; format: functional, cell-based; conditions: A2058, 96 h

CS[C@@]1(C(=O)Nc2ccc3[nH]nc(-c4ccc(OC(C)C)nc4)c3c2)CCN(CC(=O)N2CC=C(c3ccc(-c4ncn(C)n4)cc3)CC2)C1 [MK-8353]
clearance [1]: 17.9 mL/min/kg | IC50 [2]: 371 nM
